Each structure is given as a SMILES string.

For the molecule `CC(=O)N[C@@H](CC(=O)c1ccc2oc3ccccc3c2c1)C(=O)O`, the melting point (as a rule, the temperature of the solid-liquid transition) is 166 to 170 °C.

The molecule `Cc1ccc(Cl)c2c1N(C1CC1)CNS2(=O)=O` showed a melting point of 215 to 217 °C.

Molecule `O=C(c1ccc(Cl)cc1)c1cccnc1N1CCCCC1=O` displayed a melting point of 154 to 156 °C.

In turn, `O=C(O)COc1cccnc1-c1ccc(Cl)c(C(=O)NCC23CC4CC(CC(C4)C2)C3)c1` had a melting point of 133 to 137 °C.

As for `CCNC(=S)NC1CCCc2sccc21` (stereo not drawn), the melting point lay in the range of 106 to 112 °C.

In the case of `O=c1c2ccccc2nc2n1CCc1c-2[nH]c2ccc(F)cc12`, the melting point is 290 °C.

For `CCC(CO)(CO)CBr`, the melting point was in the range of 78 to 80 °C.

`CCCCCCCCCCCCCCCCCCOc1cc(OCCCCCCOc2ccc(OCc3ccccc3)cc2)cc(C(=O)OCc2ccccc2)c1` had a melting point of 60 to 62 °C.

For the molecule `O=C(c1cc(Cl)cc(Cl)c1)N1CCc2cc(S(=O)(=O)N3CCN(c4cccc(Cl)c4)CC3)ccc21`, the melting point was in the range of 262 to 263 °C.

For the molecule `Cc1ccc(C)c2c1CCC2=NNC(N)=NC(c1ccccc1)c1ccccc1`, the melting point lay within 271 to 273 °C.

Turning to `CC1(C)C(=O)Oc2ccc3ccc(Cn4cncn4)cc3c21`, the melting point was in the range of 136 to 137 °C.

Consider `CC(C)CC(=O)Nc1cccc(-c2ccnc3c(-c4ccc5c(c4)OCO5)cnn23)c1`, for which the melting point lay in the range of 172 to 173 °C.

Regarding `COc1cccc2cc(-c3ccc(OCCN4CCCC4)cc3)sc12`, the melting point was in the range of 88 to 90 °C.

In turn, `CC(C)c1ncc2n1-c1ccc(Cl)cc1C(c1ccccc1F)=NC2` had a melting point of 168 to 169 °C.

In the case of `CCCC(=O)c1cnc2c(OC)nccc2c1OS(C)(=O)=O`, the melting point is 184 to 185 °C.

For `CC(C)(C)c1cc(OCc2ccccc2-c2nnn[nH]2)cc(C(C)(C)C)c1O`, the melting point was 149 to 150 °C.

In the case of `CCOC(=O)c1cc(NCc2ccccc2)c(Nc2cccc(C(F)(F)F)c2)c(S(N)(=O)=O)c1`, the melting point lay in the range of 189 to 190 °C.

The molecule `CCOC(=O)C1CN(c2ccccc2)C(=O)C1=O` (stereo not drawn) came in with a melting point of 153 to 155 °C.

`CC#CCOc1ccc(S(=O)(=O)N(C)c2c(C(=O)OCC)cnc3c2c(C)nn3C)cc1` displayed a melting point of 50 to 52 °C.

Regarding `CN1C(=O)CCC2(C)c3ccc(Sc4ccc5ccccc5c4)cc3CCC12` (single isomer, unassigned; (+)), the melting point was in the range of 138 to 140 °C.

Take `CC(C)c1cc(-c2ccc(F)cc2)cc(-c2ccc(F)cc2)c1C=O`: the melting point is 110 to 112 °C.

In turn, `CC(C)(O)C#Cc1ccc2c(c1)NC(=O)CC(c1cccc(C#N)c1)=N2` had a melting point of 243 °C.

In turn, `O=C(Nc1ccccc1)OCC(=O)c1ccccc1` came in with a melting point of 146 to 148 °C.

On to `Fc1ccc2c(C3CCN(CC4=Cc5ccccc54)CC3)noc2c1`, for which the melting point lay in the range of 78 to 82 °C.

With `COC(=O)Cc1nc(-c2ccccc2)c(-c2ccccc2)s1`, the melting point lay in the range of 65 to 67 °C.

As to `c1ccc2c(c1)CCCc1c-2n[nH]c1-c1ccncc1`, the melting point is 217 to 219 °C.

Molecule `NC(=O)CN1C(=O)[C@@H](N)[C@H](c2ccccc2)Sc2cc(Cl)ccc21` (relative stereo) registered a melting point of 225 to 228 °C.

`COc1cc(C(C)=O)ccc1OCCCN1CCC(C(O)(c2cccc(F)c2)c2cccc(F)c2)CC1` displayed a melting point of 149 to 151 °C.

`CCOC(=O)C1=C(C)Nc2nc[nH]c(=O)c2C1c1ccccc1` (stereo not drawn) came in with a melting point of 303 to 305 °C.

On to `CCOC(=O)/C=C/c1cc2c(Nc3ccc4[nH]ccc4c3)c(C#N)cnc2s1`, for which the melting point was determined as 226 °C.

`Clc1ccc(-c2[nH]nc(N3CCN(C4CC4)CC3)c2-c2ccncc2)cc1` came in with a melting point of 264 to 265 °C.

Regarding `CC1(C)COP(=O)(O)OC1c1cccc2ccccc12` (stereo not drawn), the melting point was in the range of 216 to 217 °C.

On to `COc1ccc(N2CCN(c3ccc(OC)nc3-c3ccc(C)cc3)CC2)cc1`, for which the melting point lay in the range of 143 to 146 °C.

In turn, `CCSc1ccc(/C=C(\NC(=O)c2ccc(OCC(C)C)cc2)C(=O)NCCO)cc1` returned a melting point of 153 to 155 °C.

The molecule `CCCc1c(OCCCCSc2nnc(SCC(=O)O)s2)ccc(C(C)=O)c1O` came in with a melting point of 123 to 124 °C.

`NC(=S)Nc1ccccc1O` yielded a melting point of 161 °C.

Turning to `COC(N)C(=O)NC(=O)OCc1ccccc1` (stereo not drawn), the melting point was in the range of 110 to 112 °C.

The molecule `CCCCc1ncc(/C=C(\Cc2cccs2)C(N)=O)n1Cc1ccc(C(N)=O)cc1` showed a melting point of 204 to 206 °C.

As for `OCC1(c2ccccc2)CCCCC1`, the melting point lay in the range of 63 to 64 °C.

`COC(=O)c1ccc(Cc2c(C(=O)OC)n(-c3ccccc3)c3nc(C)ccc3c2=O)cn1`: the melting point is 177 to 178 °C.

`COc1cc(OC)nc(CC#N)n1`: the melting point lay within 65 to 67 °C.

`CCOC(=O)N1CCC(=C2c3ccsc3C=Cn3ccnc32)CC1` yielded a melting point of 194 °C.

`FC(F)Sc1ccc(-c2ccc(Cl)cc2)[nH]1` came in with a melting point of 42 to 46 °C.

`CC1(C)COC(c2ccc3c(c2)COC3=O)=N1` registered a melting point of 109 to 111 °C.

Molecule `CC(Oc1ccc(Oc2ccc(C(F)(F)F)cn2)cc1)C(=O)OCCOCc1ccccc1` (stereo not drawn) displayed a melting point of 44 to 47 °C.

As to `COc1cccc(C=CC(=O)NC2CCNC(=O)C2)c1OC` (stereo not drawn), the melting point is 164 to 166 °C.

`CCN1CCN(CC)C2SC(=C(C(=O)OC(C)C)C(=O)OC(C)C)SC21` (stereo not drawn) yielded a melting point of 84 to 86 °C.

As for `Nc1nc(Cl)cc(Oc2ccc3[nH]ccc3c2)n1`, the melting point was 192 °C.

`CCOC(=O)C1=Cc2cccc(NS(=O)(=O)N(C)C)c2OCC1` had a melting point of 93 to 96 °C.

Regarding `CC(C)(C)NC(=O)NC(C)(C)C`, the melting point came out at 246 °C.

The molecule `CN(C)c1ccc(CN[C@@H](C(=O)O)[C@H](O)[C@H](Cc2ccccc2)NC(=O)OC(C)(C)C)cc1` yielded a melting point of 202 to 204 °C.

The molecule `c1ccc(OCCSCc2nnc(-c3ccc(OCCCCN4CCSCC4)cc3)o2)cc1` gave a melting point of 58 °C.

With `COc1cc2c3c(nc4ccccc4c3c1)-c1ccccc1N2C`, the melting point is 214 to 216 °C.

On to `Cc1cc(N(C)Cc2oc(-c3ccc(C(F)(F)F)cc3)nc2C)ccc1OCC(=O)O`, for which the melting point fell in the range of 156 to 157 °C.

On to `CN(Cc1cc2c(=O)c(C(=O)NCc3ccc(Cl)cc3)cn(C)c2o1)CC(O)c1ccco1` (stereo not drawn), for which the melting point was in the range of 94 to 101 °C.

Take `Cc1cc(SC(C)C)c(NC(=O)CCCCCSc2nc3c(C)c(Cl)cc(C(C)C)c3o2)c(SC(C)C)n1`: the melting point lay within 99 to 101 °C.

`Cc1c(NC(=O)c2ccc(OCc3ccccc3)cc2)ccc2cc(CN3CCCC3)cnc12` displayed a melting point of 177 to 178 °C.

On to `COC(=O)c1n[nH]c2cc(C(F)(F)F)ccc12`, for which the melting point was in the range of 240 to 242 °C.

In the case of `CCN1c2ncc(CCCc3ccccc3)cc2C(=O)N(C)c2cccnc21`, the melting point lay within 100 to 102 °C.

On to `CCOc1cc(Cc2cnc(N)nc2N)cc2c1OC(C)(C)C=C2c1ccc(OC)c(OC)c1`, for which the melting point lay within 191 to 192 °C.

In turn, `NS(=O)(=O)c1ccc(NN=Cc2ccc(Cl)cc2)cc1` came in with a melting point of 181 to 182 °C.

For `COC(=O)C(NC(=O)c1ccc(Cl)cc1)C(=O)OC`, the melting point was in the range of 146 to 148 °C.

Turning to `CCCCCCSc1sc(-c2cc[nH]n2)c2c1C(=O)CC(C)(C)C2`, the melting point was in the range of 134 to 137 °C.

For the origin of these results see a melting point compilation (Tetko et al.; mined from patent text by program, amines drawn as free bases though some values may be those of a salt).
